Experimental data: ChEMBL document CHEMBL4339183, “Discovery of N-indanyl benzamides as potent RORγt inverse agonists” (Eur J Med Chem, 2019); call rule not given here
One block for each compound: values may come before it.

Experiments:
[1] = molecular target: T1, Nuclear receptor ROR-gamma (Homo sapiens, UniProt P51449); assay: Inverse agonist activity at APC-labeled biotinylated RORgammat LBD (unknown origin) assessed as inhibition of N-(2-chloro-6-fluorobenzyl)-N-((20-methoxy-[1,10-biphenyl]-4-yl)methyl)benzenesulfonamide-induced co-activator europium-labeled biotinylated SRC1 peptide recruitment after 1 hr by LANCE-FRET assay
T1 sequence (P51449 whole entry): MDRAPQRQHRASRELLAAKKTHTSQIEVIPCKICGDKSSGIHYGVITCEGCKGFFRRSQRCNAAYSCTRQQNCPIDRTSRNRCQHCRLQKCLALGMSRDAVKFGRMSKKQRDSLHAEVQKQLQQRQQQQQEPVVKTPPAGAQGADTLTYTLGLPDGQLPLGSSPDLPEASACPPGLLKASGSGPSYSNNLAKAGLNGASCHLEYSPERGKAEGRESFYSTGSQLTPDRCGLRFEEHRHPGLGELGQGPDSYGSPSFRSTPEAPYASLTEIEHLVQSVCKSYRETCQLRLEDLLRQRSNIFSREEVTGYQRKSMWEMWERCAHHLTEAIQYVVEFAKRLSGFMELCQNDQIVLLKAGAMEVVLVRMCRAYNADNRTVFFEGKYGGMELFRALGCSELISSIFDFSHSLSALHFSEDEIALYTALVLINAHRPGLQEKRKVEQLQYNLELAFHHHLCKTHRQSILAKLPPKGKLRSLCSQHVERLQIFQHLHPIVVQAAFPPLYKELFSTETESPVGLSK

[2] = molecular target: T2, Nuclear receptor ROR-gamma (Mus musculus, UniProt P51450); assay: Inverse agonist activity at RORgammat in mouse CD4 positive T cells assessed as inhibition of Th17 cell differentiation by measuring IL-17 release after 4 days by cellular staining based flow cytometry
T2 sequence (P51450 whole entry): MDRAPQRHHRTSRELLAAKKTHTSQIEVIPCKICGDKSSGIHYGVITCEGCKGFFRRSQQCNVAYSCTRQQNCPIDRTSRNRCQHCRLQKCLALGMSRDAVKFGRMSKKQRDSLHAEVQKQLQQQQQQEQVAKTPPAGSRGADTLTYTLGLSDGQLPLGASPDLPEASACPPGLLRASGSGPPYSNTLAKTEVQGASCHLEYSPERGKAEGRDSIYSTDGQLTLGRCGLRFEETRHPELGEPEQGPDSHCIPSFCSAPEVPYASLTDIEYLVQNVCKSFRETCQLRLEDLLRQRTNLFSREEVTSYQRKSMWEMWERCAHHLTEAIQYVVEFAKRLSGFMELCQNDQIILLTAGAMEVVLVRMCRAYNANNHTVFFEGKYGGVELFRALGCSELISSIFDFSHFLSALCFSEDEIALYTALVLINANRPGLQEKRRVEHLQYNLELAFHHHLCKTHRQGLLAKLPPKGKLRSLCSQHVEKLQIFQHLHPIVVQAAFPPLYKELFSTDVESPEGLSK

IC50 [1]: Not Active
Structure (SMILES): N#Cc1cccc(C(=O)Nc2cccc3c2ccn3C2CCN(C(=O)C3CCCC3)CC2)c1

IC50 [2]: Not Active
Structure (SMILES): N#Cc1cccc(C(=O)Nc2ccc3c(c2)[C@H](N2CC4CCC(C2)N4C(=O)C2CCCCC2)CC3)c1

IC50 ([1]; read-out: IC50): > 10 µM
Structure (SMILES): O=C(CC1CCOCC1)Nc1cccc2c1CCC2N1CC2CCC(C1)N2C(=O)C1CCCC1 (stereo not drawn)
